{"source": "patent US9593305B2", "about": "“Differentiation of pluripotent stem cells” (Janssen Biotech, Inc., priority 2008, dated 2017)", "system": "H1 human embryonic stem cells", "assay": "Step-wise differentiation, RT-PCR of differentiation markers (Example 17, Table 15)", "format": "cell-based", "description": "Stock cultures of human embryonic stem cells (H1 human embryonic stem cell line) were maintained in an undifferentiated, pluripotent state on reduced growth factor […]™ (BD Biosciences; Cat #356231)-coated dishes in MEF conditioned medium supplemented with 8 ng/ml bFGF (PeproTech Inc.; Cat #100-18B) with passage on average every four days. Passage was performed by exposing cell cultures to a solution of 1 mg/ml dispase (Invitrogen; Cat #17105-041) for 5 to 7 minutes at 37° C. followed by rinsing the monolayer with MEF conditioned culture medium and gentle scraping to recover cell clusters. Clusters were centrifuged at low speed to collect a cell pellet and remove residual dispase. Cell clusters were split at a 1:3 or 1:4 ratio for routine maintenance culture or a 1:1 ratio for immediate assay. All human ES cell lines were maintained at passage numbers less than 50 and routinely evaluated for normal karyotype and absence of mycoplasma.\nCell clusters were evenly resuspended in MEF conditioned medium supplemented with 8 ng/ml bFGF and plated onto reduced growth factor […]™-coated 24-well, black wall culture plates (Arctic White; Cat #AWLS-303012) in volumes of 0.5 ml/well. Daily feeding was conducted by aspirating spent culture medium from each well and replacing with an equal volume of fresh medium. Plates were maintained at 37° C., 5% CO2 throughout assay.\nThe assay was initiated by aspirating the culture medium from each well and adding back an aliquot (0.5 ml) of test medium. Test conditions for the first step of differentiation were conducted over a three-day period, feeding daily by aspirating and replacing the medium from each well with fresh test medium. On the first day of assay, 100 ng/ml activin A (PeproTech; Cat #120-14) or 100 ng/ml GDF-8 (R&D Systems, Cat #788-G8) was added to respective assay wells where each growth factor was diluted into RPMI-1640 medium (Invitrogen; Cat #: 22400) with 2% Albumin Bovine Fraction V, Fatty Acid Free (FAF BSA) (MP Biomedicals, Inc; Cat #152401). In some samples, 20 ng/ml Wnt3a (R&D Systems; Cat #1324-WN/CF) was also included. On the second day of assay, 100 ng/mlactivin A or 100 ng/ml GDF-8 was diluted into RPMI-1640 medium supplemented with 2% FAF BSA, omitting Wnt3a from all samples. In some test samples using GDF-8, Wnt3a was replaced with a given concentration of small molecule compound, added only on the first day of definitive endoderm differentiation. […] At the conclusion of the first step of differentiation, cells from some wells were harvested for flow cytometry analysis to evaluate levels of CXCR4, a marker of definitive endoderm formation. Additional wells were harvested for RT-PCR analysis to measure other markers of differentiation.\nAt the conclusion of the first step of definitive endoderm differentiation, replicate sets of parallel wells from each treatment group were subjected to further step-wise differentiation. It is important to note that after the first differentiation step, all wells undergoing subsequent culture and differentiation received the same treatment. The protocol for this continuing differentiation is described below.\nStep 2 of the differentiation protocol was carried out over two days. Cells were fed daily by aspirating the medium from each well and replacing with a fresh aliquot (0.5 ml) of DMEM:F12 medium (Invitrogen; Cat #11330-032) containing 2% FAF BSA, 50 ng/ml FGF7 (PeproTech; Cat #100-19), and 250 nM cyclopamine-KAAD (Calbiochem; Cat #239804).\nStep 3 of the differentiation protocol was carried out over four days. […]", "key": {"[1]": {"conditions": "Step 5, cells harvested at end of step, treatment given during step one"}}, "data": [{"substance": "GDF-8: growth factor GDF-8, also known as myostatin, member of the TGF-β family", "values": [{"measurement": "RT-PCR CT Values AFP", "setting": "Step 1", "value": 40.0}, {"measurement": "RT-PCR CT Values CD9", "setting": "Step 1", "value": 25.5}, {"measurement": "RT-PCR CT Values CD99", "setting": "Step 1", "value": 25.9}, {"measurement": "RT-PCR CT Values CDH", "setting": "Step 1", "value": 22.3}, {"measurement": "RT-PCR CT Values CDH1", "setting": "Step 1", "value": 25.2}, {"measurement": "RT-PCR CT Values CDX2", "setting": "Step 1", "value": 40.0}, {"measurement": "RT-PCR CT Values CER1", "setting": "Step 1", "value": 20.1}, {"measurement": "RT-PCR CT Values CXCR4", "setting": "Step 1", "value": 24.6}, {"measurement": "RT-PCR CT Values FGF4", "setting": "Step 1", "value": 34.9}, {"measurement": "RT-PCR CT Values FGF17", "setting": "Step 1", "value": 22.1}, {"measurement": "RT-PCR CT Values FOXA2", "setting": "Step 1", "value": 25.9}, {"measurement": "RT-PCR CT Values GAPDH", "setting": "Step 1", "value": 21.6}, {"measurement": "RT-PCR CT Values GATA4", "setting": "Step 1", "value": 27.5}, {"measurement": "RT-PCR CT Values GATA6", "setting": "Step 1", "value": 24.8}, {"measurement": "RT-PCR CT Values GSC", "setting": "Step 1", "value": 24.2}, {"measurement": "RT-PCR CT Values HLXB9", "setting": "Step 1", "value": 25.3}, {"measurement": "RT-PCR CT Values KIT", "setting": "Step 1", "value": 25.4}, {"measurement": "RT-PCR CT Values MIXL1", "setting": "Step 1", "value": 30.6}, {"measurement": "RT-PCR CT Values NANOG", "setting": "Step 1", "value": 25.0}, {"measurement": "RT-PCR CT Values OTX2", "setting": "Step 1", "value": 24.3}, {"measurement": "RT-PCR CT Values POU5F1", "setting": "Step 1", "value": 29.5}, {"measurement": "RT-PCR CT Values SOX7", "setting": "Step 1", "value": 29.8}, {"measurement": "RT-PCR CT Values SOX17", "setting": "Step 1", "value": 25.2}, {"measurement": "RT-PCR CT Values T", "setting": "Step 1", "value": 32.9}, {"measurement": "RT-PCR CT Values ALB", "setting": "Step 3", "value": 28.7}, {"measurement": "RT-PCR CT Values AMY2A", "setting": "Step 3", "value": 30.4}, {"measurement": "RT-PCR CT Values ARX", "setting": "Step 3", "value": 35.3}, {"measurement": "RT-PCR CT Values CDX2", "setting": "Step 3", "value": 23.8}, {"measurement": "RT-PCR CT Values GAPDH", "setting": "Step 3", "value": 18.0}, {"measurement": "RT-PCR CT Values GCG", "setting": "Step 3", "value": 40.0}, {"measurement": "RT-PCR CT Values HNF4A", "setting": "Step 3", "value": 23.6}, {"measurement": "RT-PCR CT Values INS", "setting": "Step 3", "value": 40.0}, {"measurement": "RT-PCR CT Values ISL1", "setting": "Step 3", "value": 28.5}, {"measurement": "RT-PCR CT Values MAFA", "setting": "Step 3", "value": 33.6}, {"measurement": "RT-PCR CT Values MAFB", "setting": "Step 3", "value": 27.2}, {"measurement": "RT-PCR CT Values NEUROD1", "setting": "Step 3", "value": 30.3}, {"measurement": "RT-PCR CT Values NEUROG3", "setting": "Step 3", "value": 28.7}, {"measurement": "RT-PCR CT Values NKX2-2", "setting": "Step 3", "value": 30.3}, {"measurement": "RT-PCR CT Values NKX2-5", "setting": "Step 3", "value": 34.4}, {"measurement": "RT-PCR CT Values NKX6-1", "setting": "Step 3", "value": 35.0}, {"measurement": "RT-PCR CT Values PAX4", "setting": "Step 3", "value": 32.4}, {"measurement": "RT-PCR CT Values PAX6", "setting": "Step 3", "value": 24.8}, {"measurement": "RT-PCR CT Values PDX1", "setting": "Step 3", "value": 25.5}, {"measurement": "RT-PCR CT Values PECAM", "setting": "Step 3", "value": 30.0}, {"measurement": "RT-PCR CT Values POU3F4", "setting": "Step 3", "value": 30.8}, {"measurement": "RT-PCR CT Values PTF1A", "setting": "Step 3", "value": 34.2}, {"measurement": "RT-PCR CT Values SST", "setting": "Step 3", "value": 29.5}, {"measurement": "RT-PCR CT Values ZIC1", "setting": "Step 3", "value": 26.1}, {"measurement": "RT-PCR CT Values ALB", "setting": "Step 4", "value": 25.5}, {"measurement": "RT-PCR CT Values AMY2A", "setting": "Step 4", "value": 29.1}, {"measurement": "RT-PCR CT Values ARX", "setting": "Step 4", "value": 29.8}, {"measurement": "RT-PCR CT Values CDX2", "setting": "Step 4", "value": 24.6}, {"measurement": "RT-PCR CT Values GAPDH", "setting": "Step 4", "value": 18.0}, {"measurement": "RT-PCR CT Values GCG", "setting": "Step 4", "value": 31.3}, {"measurement": "RT-PCR CT Values HNF4A", "setting": "Step 4", "value": 23.8}, {"measurement": "RT-PCR CT Values INS", "setting": "Step 4", "value": 30.9}, {"measurement": "RT-PCR CT Values ISL1", "setting": "Step 4", "value": 27.6}, {"measurement": "RT-PCR CT Values MAFA", "setting": "Step 4", "value": 32.8}, {"measurement": "RT-PCR CT Values MAFB", "setting": "Step 4", "value": 24.1}, {"measurement": "RT-PCR CT Values NEUROD1", "setting": "Step 4", "value": 29.2}, {"measurement": "RT-PCR CT Values NEUROG3", "setting": "Step 4", "value": 28.7}, {"measurement": "RT-PCR CT Values NKX2-2", "setting": "Step 4", "value": 29.0}, {"measurement": "RT-PCR CT Values NKX2-5", "setting": "Step 4", "value": 32.3}, {"measurement": "RT-PCR CT Values NKX6-1", "setting": "Step 4", "value": 31.2}, {"measurement": "RT-PCR CT Values PAX4", "setting": "Step 4", "value": 31.1}, {"measurement": "RT-PCR CT Values PAX6", "setting": "Step 4", "value": 27.9}, {"measurement": "RT-PCR CT Values PDX1", "setting": "Step 4", "value": 26.5}, {"measurement": "RT-PCR CT Values PECAM", "setting": "Step 4", "value": 29.4}, {"measurement": "RT-PCR CT Values POU3F4", "setting": "Step 4", "value": 29.4}, {"measurement": "RT-PCR CT Values PTF1A", "setting": "Step 4", "value": 40.0}, {"measurement": "RT-PCR CT Values SST", "setting": "Step 4", "value": 26.0}, {"measurement": "RT-PCR CT Values ZIC1", "setting": "Step 4", "value": 22.8}, {"measurement": "RT-PCR CT Values ALB", "setting": "Step 5", "value": 20.5}, {"measurement": "RT-PCR CT Values AMY2A", "setting": "Step 5", "value": 28.2}, {"measurement": "RT-PCR CT Values ARX", "setting": "Step 5", "value": 25.2}, {"measurement": "RT-PCR CT Values CDX2", "setting": "Step 5", "value": 24.4}, {"measurement": "RT-PCR CT Values GAPDH", "setting": "Step 5", "value": 17.4}, {"measurement": "RT-PCR CT Values GCG", "setting": "Step 5", "value": 18.1}, {"measurement": "RT-PCR CT Values HNF4A", "setting": "Step 5", "value": 22.9}, {"measurement": "RT-PCR CT Values INS", "setting": "Step 5", "value": 17.7}, {"measurement": "RT-PCR CT Values ISL1", "setting": "Step 5", "value": 24.3}, {"measurement": "RT-PCR CT Values MAFA", "setting": "Step 5", "value": 31.8}, {"measurement": "RT-PCR CT Values MAFB", "setting": "Step 5", "value": 23.3}, {"measurement": "RT-PCR CT Values NEUROD1", "setting": "Step 5", "value": 24.2}, {"measurement": "RT-PCR CT Values NEUROG3", "setting": "Step 5", "value": 30.1}, {"measurement": "RT-PCR CT Values NKX2-2", "setting": "[1]", "value": 25.9, "unit": "CT"}, {"measurement": "RT-PCR CT Values NKX2-5", "setting": "[1]", "value": 31.4, "unit": "CT"}, {"measurement": "RT-PCR CT Values NKX6-1", "setting": "[1]", "value": 26.6, "unit": "CT"}, {"measurement": "RT-PCR CT Values PAX4", "setting": "[1]", "value": 29.4, "unit": "CT"}, {"measurement": "RT-PCR CT Values PAX6", "setting": "[1]", "value": 26.6, "unit": "CT"}, {"measurement": "RT-PCR CT Values PDX1", "setting": "[1]", "value": 25.6, "unit": "CT"}, {"measurement": "RT-PCR CT Values PECAM", "setting": "[1]", "value": 29.7, "unit": "CT"}, {"measurement": "RT-PCR CT Values POU3F4", "setting": "[1]", "value": 27.8, "unit": "CT"}, {"measurement": "RT-PCR CT Values PTF1A", "setting": "[1]", "value": 29.5, "unit": "CT"}, {"measurement": "RT-PCR CT Values SST", "setting": "[1]", "value": 21.1, "unit": "CT"}, {"measurement": "RT-PCR CT Values ZIC1", "setting": "[1]", "value": 22.5, "unit": "CT"}]}]}
